Assay results as given in patent publication US4880783A, “Use of adenosine, hypoxanthine and ribose-containing solution for improved protection of the heart during surgery” (University of Virginia Alumnia Patents Foundation, priority 1988, dated 1989).

Experiments:
[1] = test system: isolated perfused rat heart; test: Recovery of left ventricular developed pressure in isolated perfused rat heart after 10 min total ischemia; set-up: % of Control Developed Pressure, 15' RP / % of Control Developed Pressure, 30' RP / % of Control Developed Pressure, 60' RP: concentration or dose not given beside the values; settings: for % of Control Developed Pressure, 15' RP: 15' reperfusion; for % of Control Developed Pressure, 15' RP / % of Control Developed Pressure, 30' RP / % of Control Developed Pressure, 60' RP: 37° C., N ≥ 5; for % of Control Developed Pressure, 30' RP: 30' reperfusion; for % of Control Developed Pressure, 60' RP: 60' reperfusion; for contractile function of the isolated perfused rat heart: in words, after 10 minutes of total ischemia
Protocol: This hypothesis was also tested using the aforementioned isolated rat heart model. The effects of adenosine and hypoxanthine on the recovery of cardiac contractile function was assessed by the determination of left ventricular developed pressure during the post-ischemic reperfusion phase with the use of an intra-ventricular saline filled balloon.

[2] = test system: myocardial ATP (isolated perfused rat heart); test: Myocardial ATP in Langendorff isolated perfused rat heart before, during and after 10 min ischemia; settings: 100 μM; for ATP, 10' Ischemia / ATP, 15' RP / ATP, 30' RP / ATP, 60' RP / ATP, Equilibration: 37° C., N ≥ 5; for ATP, 15' RP: 15' reperfusion; for ATP, 30' RP: 30' reperfusion; for ATP, 60' RP: 60' reperfusion; for ATP, Equilibration: pre-ischemic equilibration; for nucleotide pools (ATP) during ischemia and/or post-ischemic reperfusion: in words, isolated rat heart

| SMILES | % of Control Developed Pressure, 15' RP [1] [%] | % of Control Developed Pressure, 30' RP [1] [%] | % of Control Developed Pressure, 60' RP [1] [%] | contractile function of the isolated perfused rat heart [1] | ATP, 10' Ischemia [2] | ATP, 15' RP [2] | ATP, 30' RP [2] | ATP, 60' RP [2] | ATP, Equilibration [2] | nucleotide pools (ATP) during ischemia and/or post-ischemic reperfusion [2] |
| --- | --- | --- | --- | --- | --- | --- | --- | --- | --- | --- |
| Nc1ncnc2c1ncn2[C@@H]1O[C@H](CO)[C@@H](O)[C@H]1O [Adenosine, adenosine] | 86 ± 3 | 96 ± 3 | 95 ± 3 | capable of restoring the contractile function | 1.7 ± 0.1 μmoles/g wet weight | 2.9 ± .08 μmoles/g wet weight | 2.7 ± .08 μmoles/g wet weight | 2.7 ± .06 μmoles/g wet weight | 3.9 ± 0.4 μmoles/g wet weight | able to enhance nucleotide pools (ATP) during ischemia and/or during the post-ischemic reperfusion period |
| O=c1[nH]cnc2nc[nH]c12 [Hypoxanthine, hypoxanthine] | 84 ± 5 | 88 ± 2 | 87 ± 3 | capable of restoring the contractile function | 1.4 ± .2 μmoles/g wet weight | 2.7 ± .2 μmoles/g wet weight | 2.7 ± .1 μmoles/g wet weight | 2.3 ± .1 μmoles/g wet weight | 3.4 ± .2 μmoles/g wet weight | able to enhance nucleotide pools (ATP) during ischemia and/or during the post-ischemic reperfusion period |
